The assay concerns the target T1, STING (Stimulator of Interferon Genes) (Homo sapiens, UniProt Q86WV6, G230A/H232R/R293Q/R71H).
T1 construct: host or cells: THP-1-Lucia ISG cells (human monocytic line)
Nature of the assay: ISG-LUC activation assay (ISRE-Luciferase assay in THP-1 Lucia ISG reporter cells). It counts as cell-based. The note with it: THP-1 Lucia ISG cells, 24 hours, luciferase reporter; read-out: ISG-LUC activation assay (EC50). The text has this:
This has been established using a primary assay involving a human THP-1 cell line carrying an IRF-inducible reporter with 5 copies of the IFN signaling response element. Counter screens, involving alternative reporter constructs, rodent cell-based assays, as well as cGAS and STING knock-out cell lines, are used to eliminate luciferase artifacts and ensure human-rodent cross species reactivity, as well as pathway selectivity. Biochemical assays, involving cGAS enzymatic activity and STING protein binding assays, are used to identify the specific target of identified hits.
THP-1 Lucia ISG cells were resuspended in low-serum growth media (2% FBS) at a density of 5×10^5 cells/ml and treated with test article or vehicle (DMSO). 50 μL of cells were seeded into each well of a 384-well white greiner plates and incubated for 24 hours. To evaluate expression of the luciferase reporter, 30 μl of Quanti-luc (Invivogen) detection reagent was added to each well and luminescence was read using an Envision plate reader (Perkin Elmer) set with an integration time of 0.1 seconds.
In general terms: A reporter such as luciferase makes a cellular process visible.
T1 sequence (Q86WV6 whole entry R71H/G230A/H232R/R293Q): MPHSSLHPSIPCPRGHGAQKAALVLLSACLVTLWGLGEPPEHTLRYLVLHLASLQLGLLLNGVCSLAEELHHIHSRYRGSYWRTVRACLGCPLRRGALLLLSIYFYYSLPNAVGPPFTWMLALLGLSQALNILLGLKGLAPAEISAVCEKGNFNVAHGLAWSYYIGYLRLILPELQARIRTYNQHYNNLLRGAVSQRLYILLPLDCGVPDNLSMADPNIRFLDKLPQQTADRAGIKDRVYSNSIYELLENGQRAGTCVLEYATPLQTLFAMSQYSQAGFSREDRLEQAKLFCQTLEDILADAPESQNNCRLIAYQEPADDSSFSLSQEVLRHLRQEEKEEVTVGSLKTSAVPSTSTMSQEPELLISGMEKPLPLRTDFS
What is called EC50 is the concentration giving half of the maximal effect. As to `O=C(Nc1ccccc1C(O)(C(F)(F)F)C(F)(F)F)c1ccc(-n2ccnc2)nn1` [Compound 1], the EC50 worked out at 0.593 µM.

Consider `COC(=O)c1ccc(F)c(C)c1NC(=O)c1ccc(-n2ccnc2)nn1` [Compound 2], for which the EC50 was 4.69 µM.

As for `COC(=O)c1c(F)ccc(F)c1NC(=O)c1ccc(-n2ccnc2)nn1` [Compound 3], the EC50 is 10.2 µM.

As for `O=C(Nc1ccccc1C(=O)OC1CCC1)c1ccc(-n2ccnc2)nn1` [Compound 4], the EC50 worked out at 2.07 µM.

As to `COC(=O)c1ncccc1NC(=O)c1ccc(-n2ccnc2)nn1` [Compound 5], the EC50 turned out to be 1.24 µM.

For the compound `COC(=O)c1ccc(C)c(C)c1NC(=O)c1ccc(-n2ccnc2)nn1` [Compound 6], the EC50 was about 2.76 µM.

As for `Cc1noc(-c2ccccc2NC(=O)c2ccc(-n3ccnc3)nn2)n1` [Compound 7], the EC50 was over 50 µM.

Turning to `COC(=O)c1ccncc1NC(=O)c1ccc(-n2ccnc2)nn1` [Compound 8], the EC50 was determined as 2.57 µM.

In the case of `Cc1cc2nc(-c3ccc(-n4ccnc4)nn3)oc(=O)c2cc1C` [Compound 9], the EC50 came out at 0.163 µM.

As for `COC(=O)c1cc(NC(=O)c2ccc(-n3ccnc3)nn2)cc(F)c1F` [Compound 10], the EC50 was found to be 0.468 µM.

As for `COC(=O)c1cc(C)c(C)cc1NC(=O)c1ccc(-n2ccnc2)nn1` [Compound 11], the EC50 amounted to 0.103 µM.

As for `COC(=O)c1ccc(C#N)cc1NC(=O)c1ccc(-n2ccnc2)nn1` [Compound 12], the EC50 was 0.159 µM.

Regarding `COC(=O)c1cc(F)ccc1NC(=O)c1ccc(-n2ccnc2)nn1` [Compound 13], the EC50 came to 0.249 µM.

Consider `COC(=O)c1cc(OC)ccc1NC(=O)c1ccc(-n2ccnc2)nn1` [Compound 14], for which the EC50 was found to be 0.288 µM.

On to `COC(=O)c1ccc(C)cc1NC(=O)c1ccc(-n2ccnc2)nn1` [Compound 15], for which the EC50 is 0.294 µM.

Consider `COC(=O)c1ccc(F)cc1NC(=O)c1ccc(-n2ccnc2)nn1` [Compound 16], for which the EC50 was determined as 0.684 µM.

Take `COC(=O)c1ccc(Cl)cc1NC(=O)c1ccc(-n2ccnc2)nn1` [Compound 17]: the EC50 turned out to be 0.312 µM.

On to `COC(=O)c1ccc(F)c(F)c1NC(=O)c1ccc(-n2ccnc2)nn1` [Compound 18], for which the 50% effective concentration (EC50) was 0.568 µM.

Take `COC(=O)c1cc(F)cc(F)c1NC(=O)c1ccc(-n2ccnc2)nn1` [Compound 19]: the EC50 turned out to be 0.817 µM.

On to `CCc1ccc(NC(=O)c2ccc(-n3ccnc3)nn2)c(C(=O)OC)c1` [Compound 20], for which the EC50 is 0.418 µM.

`COC(=O)c1cc(F)c(C)cc1NC(=O)c1ccc(-n2ccnc2)nn1` [Compound 21]: the EC50 turned out to be 0.0904 µM.

`CC(C)COC(=O)c1ccccc1NC(=O)c1ccc(-n2ccnc2)nn1` [Compound 22]: the EC50 came to 0.895 µM.

Turning to `COC(=O)c1cc2ccccc2cc1NC(=O)c1ccc(-n2ccnc2)nn1` [Compound 23], the EC50 was found to be 0.0561 µM.

With `CC(C)OC(=O)c1cc(F)c(F)cc1NC(=O)c1ccc(-n2ccnc2)nn1` [Compound 24], the EC50 came out at 0.736 µM.

For `CC(C)OC(=O)c1cc(F)ccc1NC(=O)c1ccc(-n2ccnc2)nn1` [Compound 25], the EC50 was determined as 0.805 µM.

In the case of `COC(=O)c1cc(C(F)(F)F)ccc1NC(=O)c1ccc(-n2ccnc2)nn1` [Compound 26], the EC50 was found to be 0.114 µM.

Regarding `COC(=O)c1ccc(C(F)(F)F)cc1NC(=O)c1ccc(-n2ccnc2)nn1` [Compound 27], the EC50 stood at 0.136 µM.

Consider `COC(=O)c1cc(OC)c(F)cc1NC(=O)c1ccc(-n2ccnc2)nn1` [Compound 28], for which the EC50 turned out to be 0.0958 µM.

`O=c1oc(-c2ccc(-n3ccnc3)nn2)nc2cc(F)c(F)cc12` [Compound 29]: the EC50 was 0.14 µM.

On to `CCOC(=O)c1nc(C)ccc1NC(=O)c1ccc(-n2ccnc2)nn1` [Compound 30], for which the EC50 is 0.149 µM.

As to `COC(=O)c1ccc(C2CC2)cc1NC(=O)c1ccc(-n2ccnc2)nn1` [Compound 31], the EC50 was 0.206 µM.

Consider `COC(=O)c1cc(C2CC2)ccc1NC(=O)c1ccc(-n2ccnc2)nn1` [Compound 32], for which the EC50 is 0.359 µM.

In the case of `Cc1cc2c(=O)oc(-c3ccc(-n4ccnc4)nn3)nc2cc1F` [Compound 33], the EC50 is under 0.0195 µM.

Regarding `COC(=O)c1cc(Cl)c(Cl)cc1NC(=O)c1ccc(-n2ccnc2)nn1` [Compound 34], the EC50 turned out to be 0.0726 µM.

Take `O=c1oc(-c2ccc(-n3ccnc3)nn2)nc2cc(Cl)c(Cl)cc12` [Compound 35]: the EC50 turned out to be 0.0617 µM.

In the case of `O=c1oc(-c2ccc(-n3ccnc3)nn2)nc2cc(Cl)c(F)cc12` [Compound 36], the EC50 amounted to 0.0403 µM.

Consider `N#Cc1ccc2c(=O)oc(-c3ccc(-n4ccnc4)nn3)nc2c1` [Compound 37], for which the EC50 came out at 0.166 µM.

`COc1ccc2c(=O)oc(-c3ccc(-n4ccnc4)nn3)nc2c1` [Compound 38]: the EC50 is 0.485 µM.

Turning to `Cc1cc2nc(-c3ccc(-n4ccnc4)nn3)oc(=O)c2cc1F` [Compound 39], the EC50 came to 0.0308 µM.

Regarding `COc1ccc2nc(-c3ccc(-n4ccnc4)nn3)oc(=O)c2c1` [Compound 40], the EC50 worked out at 0.684 µM.

For the compound `O=c1oc(-c2ccc(-n3ccnc3)nn2)nc2ccc(OC(F)(F)F)cc12` [Compound 41], the EC50 was 0.176 µM.

On to `O=c1oc(-c2ccc(-n3ccnc3)nn2)nc2cc(F)c(OC(F)(F)F)cc12` [Compound 42], for which the EC50 amounted to 0.373 µM.

For the compound `COC(=O)c1nc(Br)c(F)cc1NC(=O)c1ccc(-n2ccnc2)nn1` [Compound 43], the EC50 was determined as 0.142 µM.

On to `COC(=O)c1cc(OC(F)(F)F)c(F)cc1NC(=O)c1ccc(-n2ccnc2)nn1` [Compound 44], for which the concentration for a half-maximal effect (EC50) worked out at 0.573 µM.

For `COC(=O)c1cc2cnn(C)c2cc1NC(=O)c1ccc(-n2ccnc2)nn1` [Compound 45], the EC50 came out at 0.126 µM.

Turning to `Cc1cc(NC(=O)c2ccc(-n3ccnc3)nn2)c(C(=O)OCCCCO)cc1C` [Compound 46], the 50% effective concentration (EC50) amounted to 0.418 µM.

On to `COC(=O)c1cc(Cl)c(C)nc1NC(=O)c1ccc(-n2ccnc2)nn1` [Compound 47], for which the EC50 was 0.282 µM.

For `COC(=O)c1cc(C(F)(F)F)cc(F)c1NC(=O)c1ccc(-n2ccnc2)nn1` [Compound 48], the EC50 amounted to 0.475 µM.

Turning to `COC(=O)c1cc(C#N)ccc1NC(=O)c1ccc(-n2ccnc2)nn1` [Compound 49], the EC50 was determined as 0.588 µM.

Regarding `COC(=O)c1cc(C)c(F)cc1NC(=O)c1ccc(-n2ccnc2)nn1` [Compound 50], the EC50 was 0.145 µM.

With `COC(=O)c1c(F)cc(F)cc1NC(=O)c1ccc(-n2ccnc2)nn1` [Compound 51], the EC50 was 0.198 µM.

With `COC(=O)c1cc(F)c(OC)cc1NC(=O)c1ccc(-n2ccnc2)nn1` [Compound 52], the EC50 turned out to be 0.0744 µM.

With `O=C(Nc1cc(Cl)c(F)cc1C(=O)O)c1ccc(-n2ccnc2)nn1` [Compound 53], the EC50 is about 0.625 µM.

`COc1cc(NC(=O)c2ccc(-n3ccnc3)nn2)c(C(=O)O)cc1F` [Compound 54]: the EC50 turned out to be 0.248 µM.

As for `COC(=O)c1cc(C#N)c(F)cc1NC(=O)c1ccc(-n2ccnc2)nn1` [Compound 55], the concentration for a half-maximal effect (EC50) worked out at 0.221 µM.

For `COC(=O)c1cc(F)c(C2CC2)cc1NC(=O)c1ccc(-n2ccnc2)nn1` [Compound 56], the EC50 was found to be 0.302 µM.

On to `COC(=O)c1cc(OC)c(Cl)cc1NC(=O)c1ccc(-n2ccnc2)nn1` [Compound 57], for which the EC50 is under 0.0195 µM.

Turning to `COC(=O)c1cc(F)c(Br)cc1NC(=O)c1ccc(-n2ccnc2)nn1` [Compound 58], the EC50 turned out to be 0.0606 µM.

`COC(=O)c1cc(F)c(OC)c(F)c1NC(=O)c1ccc(-n2ccnc2)nn1` [Compound 59]: the EC50 came to 0.78 µM.

`COC(=O)c1cc(Cl)c(Br)c(F)c1NC(=O)c1ccc(-n2ccnc2)nn1` [Compound 60]: the EC50 worked out at 0.0622 µM.

As for `COC(=O)c1cc(C)c(Cl)cc1NC(=O)c1ccc(-n2ccnc2)nn1` [Compound 61], the EC50 was found to be 0.124 µM.

As to `COc1ccc(C(=O)O)c(NC(=O)c2ccc(-n3ccnc3)nn2)c1` [Compound 62], the EC50 was 1.46 µM.

As to `NC(=O)c1cc(F)c(F)cc1NC(=O)c1ccc(-n2ccnc2)nn1` [Compound 63], the EC50 amounted to 2.64 µM.

Consider `CCOC(=O)c1ccccc1NC(=O)c1ccc(-n2ccnc2)nn1` [Compound 64], for which the EC50 is 0.926 µM.

For the compound `CCc1ccc(NC(=O)c2ccc(-n3ccnc3)nn2)c(C(=O)OC(C)C)c1` [Compound 65], the EC50 was found to be 1.16 µM.

For the compound `Cc1ccc(C(=O)OC(C)C)c(NC(=O)c2ccc(-n3ccnc3)nn2)c1` [Compound 66], the EC50 was 0.518 µM.

For `CCOC(=O)C1=C(NC(=O)c2ccc(-n3ccnc3)nn2)CCC(C)C1` (centres unmarked) [Compound 67], the EC50 turned out to be 2.95 µM.

On to `CCN(CC)CCOC(=O)c1cc(F)c(F)cc1NC(=O)c1ccc(-n2ccnc2)nn1` [Compound 68], for which the EC50 amounted to 1.81 µM.

Turning to `COC(=O)c1ncc(F)cc1NC(=O)c1ccc(-n2ccnc2)nn1` [Compound 69], the EC50 came out at 2.79 µM.

Take `COC(=O)c1cc(C(F)(F)F)c(F)cc1NC(=O)c1ccc(-n2ccnc2)nn1` [Compound 70]: the EC50 was determined as 1.72 µM.

With `COC(=O)c1nc(OC)ncc1NC(=O)c1ccc(-n2ccnc2)nn1` [Compound 71], the EC50 turned out to be 1.66 µM.

Regarding `COC(=O)c1c(F)cccc1NC(=O)c1ccc(-n2ccnc2)nn1` [Compound 72], the EC50 is 1.67 µM.

For the compound `COC(=O)c1cc(C#N)cc(F)c1NC(=O)c1ccc(-n2ccnc2)nn1` [Compound 73], the EC50 is 2.37 µM.

For `COC(=O)c1nc(OC)ccc1NC(=O)c1ccc(-n2ccnc2)nn1` [Compound 74], the EC50 came to 1.36 µM.

Source of the values: US11701364B2, “Agonists of stimulator of interferon genes sting” (The Scripps Research Institute, priority 2018, dated 2023).
